Measurements as given in patent US20230094076A1, “COMBINATION THERAPY” (GlaxoSmithKline Intellectual Property Development Limited, priority 2016, published 2023).

Tested on: AML cell lines
Test: Preliminary RNA-seq studies
Assay type: cell-based
Conditions: chemokines, cytokines, interferons, interleukins
Description: PRMT1 has been implicated in immune regulation through modulation of the TLR receptor signaling pathway, whereby PRMT1 knock-down results in increased expression of pro-inflammatory molecules (Tikhanovich, I. et al. Dynamic Arginine Methylation of Tumor Necrosis Factor (TNF) Receptor-associated Factor 6 Regulates Toll-like Receptor Signaling. J Biol Chem 290, 22236-22249, doi:10.1074.jbc.M115.653543 (2015)).

Compound: CNCCN(C)Cc1c[nH]nc1[C@H]1CC[C@@]2(CC1)CC(C)(C)CO2 [Compound D]
- expression of immune response gene families: altered expression
